Measured values taken from article PMC11013284, “Chemoselective Synthesis and Anti-Kinetoplastidal Properties of 2,6-Diaryl-4H-tetrahydro-thiopyran-4-one S-Oxides: Their Interplay in a Cascade of Redox Reactions from Diarylideneacetones” (Molecules, 2024).
Read-outs that look alike come from different tables or passages of the source.

Legend:
[1] = test system: human diploid embryonic lung fibroblast hMRC-5SV2 cells; experiment: in vitro
Experimental: (§1) The cytotoxicity of compounds was evaluated toward human diploid embryonic lung fibroblast hMRC-5SV2 cells, derived from fetal lung tissue and first described in 1970. hMRC-5SV2 cells were cultured in 96-well plates with five concentrations of the compound (64, 16, 4, 1, and 0.25 μM). After 3 days of incubation, the cell viability was assessed fluorimetrically after the addition of resazurin, and fluorescence was measured (λex = 550 nm, λem = 590 nm). The results were expressed as a percentage reduction in cell growth/viability compared to control wells, and a 50% cytotoxic concentration (CC50) was calculated. The reference cytotoxic drugs were tamoxifen or ivermectin. Additionally, toxicity toward mouse macrophages was qualitatively observed. Three concentrations were included (64, 16, and 4 µM), and the range of toxicity was ranked from the least toxic to the most toxic compound.

in vitro = settings: human, CC50 hMRC-5 (cytotoxicity)
Experimental: as §1

[2] = test system: L. infantum (MHOM/MA(BE)/67) amastigotes in primary peritoneal mouse macrophages; experiment: L. infantum intramacrophage amastigote assay (microscopic burden); format: cell-based, Leishmania infantum; settings: 5 days, mouse macrophages as host
Experimental: L. infantum (MHOM/MA(BE)/67 strain) amastigote were incubated for 5 days in 96-well plates with five concentrations of compound (64, 16, 4, 1, and 0.25 μM). Primary peritoneal mouse macrophages were used as host cells. Parasite burdens (i.e., the number of amastigotes per macrophage) were microscopically assessed. The results were expressed as a percentage reduction in parasite burden compared to untreated control wells, and an IC50 was calculated.

[3] = test system: Trypanosoma brucei brucei trypomastigotes, suramin-sensitive strain (Squib 427); experiment: T. b. brucei growth/viability assay (resazurin); format: cell-based; settings: for IC50: 3 days; for anti-trypanosomal activity (IC50): Trypanosoma (T. cruzi and T. b. brucei)
Experimental: After 3 days, parasite growth was assessed fluorimetrically following the addition of resazurin. After 24 h at 37 °C, fluorescence was measured (λex = 550 nm, λem = 590 nm). The results were expressed as a percentage reduction in parasite growth/viability compared to control wells, and a 50% inhibitory concentration (IC50) was calculated.

[4] = test system: WT LV9 L. donovani intramacrophage amastigotes; experiment: L. donovani intramacrophage amastigote assay; format: cell-based, Leishmania donovani; settings: WT LV9, ± SD in Tables S5/S6, read-out: IC50 L. donovani intramacrophage amastigotes
[5] = test system: Trypanosoma cruzi (Tulahuen CL2 β-galactosidase) amastigotes in hMRC-5SV2 cells; experiment: T. cruzi intracellular amastigote assay (β-galactosidase/CPRG); format: cell-based; settings: intracellular amastigotes, 7 days; for IC50: read-out: IC50 T. cruzi intramacrophage amastigotes (converted)
Experimental: A nifurtimox-sensitive strain (Tulahuen CL2 β-galactosidase) in human lung fibroblast hMRC-5SV2 cells was incubated for 7 days in 96-well plates with five concentrations of compound (64, 16, 4, 1, and 0.25 μM). The parasitic burden was evaluated through the activity of the enzyme β-galactosidase on a specific chlorophenol red ß-D-galactopyranoside (CPRG) substrate. Live parasites converted the yellow-orange CPRG substrate into the red chromophore chlorophenol red, yielding a dark-red solution, which could be quantitatively measured at 540 nm after 4 h of incubation at 37 °C. The results were expressed as a percentage reduction in parasite growth/viability compared to control wells, and an IC50 was calculated.

macrophages = settings: bracketed value after the intramacrophage IC50 (Table S5); Table S6
murine macrophages = experiment: Qualitative toxicity toward mouse macrophages; settings: concentration at which toxicity was observed; 64, 16 and 4 µM tested
Experimental: as §1

[6] = Leishmania infantum, Macrophage, 120 h
[7] = Trypanosoma cruzi, TULAHUEN, 168 h

SMILES | CC50 ([1]; human, 3 days) | CC50 at 3 days (in vitro) | IC50 [2] | IC50 [2, 6] | IC50 [3] | IC50 ([3]; Trypanosoma brucei, 72 h) | IC50 ([4]; Leishmania donovani) | IC50 [5, 7] | IC50 [5] | CC50 [1] | observed macrophage death / lysis observed at (macrophages) | IC50 [4] | Toxicity (T) observed toward murine macrophages (murine macrophages) | IC50 L. infantum intramacrophage amastigotes [2] | anti-trypanosomal activity (IC50) [3] | IC50 T. cruzi intramacrophage amastigotes [5]
O=C1CC(c2ccccn2)SC(c2ccccn2)C1 (stereo not drawn) [2′w] | ≥ 64 µM | > 64 µM | ≥ 64 µM | > 64 µM | 29100 nM | 29600 nM | > 100 µM | > 64 µM | ≥ 64 µM |  |  |  |  |  |  | 
CC(=O)Nc1ccc(C2CC(=O)CC(c3ccc(NC(C)=O)cc3)S2)cc1 (racemic) [2v] |  |  | > 64 µM |  | > 64000 nM |  |  |  | > 64 µM | > 64 µM | > 100 µM | > 50 µM |  |  |  | 
O=C1C[C@H](c2ccccn2)S[C@@H](c2ccccn2)C1 (racemic) [2w] | ≥ 64 µM | > 64 µM | ≥ 64 µM | > 64 µM |  | 26100 nM | > 100 µM | > 64 µM | ≥ 64 µM |  |  |  |  |  |  | 
Cc1ccc(/C=C/C(=O)/C=C/c2ccc(C)o2)o1 [1za] |  | 5.4 µM |  | 8.1 µM |  | 8200 nM |  | 2.2 µM |  |  |  |  | T2 (T2 = 16) |  |  | 
COc1ccc(C2CC(=O)CC(c3ccc(OC)cc3)[S+]2[O-])cc1 (mixture of isomers) [3d, (±)-trans-2,6-Di-(p-anisyl)-4H-tetrahydrothiopyran-4-one 1-oxide] |  | 32.2 µM | ≥ 64 µM |  |  | 3100 nM |  |  | 8.9 µM |  |  | 50.2 µM |  |  |  | 
COc1ccc(/C=C/C(=O)/C=C/c2ccc(OC)cc2)cc1 [1d] | ≥ 64 µM | > 64 µM | ≥ 64 µM | > 64 µM | 1240 nM | 1200 nM |  | 10.7 µM |  |  |  |  |  |  |  | 
COc1ccc([C@H]2CC(=O)C[C@H](c3ccc(OC)cc3)S2)cc1 (relative stereo) [2d] | ≥ 64 µM | > 64 µM | ≥ 64 µM | > 64 µM | ≥ 64000 nM | > 64000 nM |  | > 64 µM | ≥ 64 µM |  |  |  |  |  |  | 
N#Cc1ccc(C2CC(=O)CC(c3ccc(C#N)cc3)S2)cc1 (racemic) [2t] |  |  | > 64 µM |  | 1200 nM |  |  |  | 42.5 µM | > 64 µM | > 100 µM | > 50 µM |  |  |  | 
COc1ccc(C2CC(=O)CC(c3ccc(OC)cc3)S2)cc1 (stereo not drawn) [2′d] | ≥ 64 µM | > 64 µM | ≥ 64 µM | > 64 µM | ≥ 64000 nM | > 64000 nM | > 100 µM | > 64 µM | ≥ 64 µM |  |  |  |  |  |  | 
O=C1CC(c2ccccn2)[S+]([O-])C(c2ccccn2)C1 (stereo not drawn) [3w, (±)-trans-2,6-Di-(pyridin-2-yl)-4H-tetrahydrothiopyran-4-one 1-oxide] |  | 8 µM |  | 2 µM |  | 100 nM | 25 µM | 0.8 µM |  |  |  |  | T3 (T3 = 4) |  |  | 
O=C1CC(c2ccccn2)S(=O)(=O)C(c2ccccn2)C1 (stereo not drawn) [4′w, cis-2,6-Di-(pyridin-2-yl)-4H-tetrahydrothiopyran-4-one 1,1-dioxide] | 7.5 µM |  | 2 µM |  | 100 nM |  |  |  | 0.4 µM |  |  | 1.6 µM | T3 (T3 = 4) | excellent potency | high nanomolar range | 
COc1ccc(/C=C/C(=O)/C=C/c2ccc(OC)c(OC)c2)cc1OC [1j] |  | 6.9 µM |  | 30 µM |  | 2100 nM |  | 2.1 µM |  |  |  |  | T1 (T1 = 64) |  |  | 
O=C1CC(c2ccccc2Cl)SC(c2ccccc2Cl)C1 (racemic) [2e] |  |  | 32 µM |  | > 64000 nM |  |  |  | > 64 µM | > 64 µM | > 150 µM | 14.2 ± 1.3 µM |  |  |  | 
COc1cc(Br)c(OC)c(/C=C/C(=O)/C=C/c2cc(OC)cc(Br)c2OC)c1 [1q] |  | 0.8 µM |  | 10.4 µM |  | 900 nM |  | 0.9 µM |  |  |  |  | T1 (T1 = 64) |  |  | 
COc1ccc(O)c(/C=C/C(=O)/C=C/c2cc(OC)ccc2O)c1 [1l] |  | 1.9 µM |  | ≥ 32 µM |  | ≤ 300 nM |  | 1 µM |  |  |  |  |  |  |  | 
O=C1CC(c2ccccn2)S(=O)(=O)C(c2ccccn2)C1 (racemic) [4w, (±)-trans-2,6-Di-(pyridin-2-yl)-4H-tetrahydrothiopyran-4-one 1,1-dioxide] |  | 7.9 µM |  | 2 µM | 500 nM |  |  | 0.4 µM |  |  |  | 5 µM | T3 (T3 = 4) | excellent potency | high nanomolar range | 
COc1ccc(C2CC(=O)CC(c3ccc(OC)c(OC)c3)S2)cc1OC (racemic) [2j] |  |  | 32.5 µM |  | 8100 nM |  |  |  | 7.3 µM | 9.3 µM | > 150 µM | 19.3 ± 7.1 µM |  |  |  | 
O=C1CC(c2ccco2)SC(c2ccco2)C1 (racemic) [2z] |  |  | > 64 µM |  | > 64000 nM |  |  |  | > 64 µM | > 64 µM | > 150 µM | 3.2 ± 0.8 µM |  |  |  | 
CC(=O)Nc1ccc(/C=C/C(=O)/C=C/c2ccc(NC(C)=O)cc2)cc1 [1v] |  |  | 8.1 µM |  | 500 nM |  |  |  | 10.2 µM | 34 µM | 100 µM | > 50 µM |  |  |  | 
COc1ccc(C2CC(=O)CC(c3ccc(OC)cc3)[S+]2[O-])cc1 (stereo not drawn) [3″d, (anti)- and (syn)-cis-2,6-Di-(p-anisyl)-4H-tetrahydro-thiopyran-4-one 1-oxides] | 32 µM |  | 27.3 µM |  | 2400 nM |  |  |  | 8.5 µM |  |  | 35 µM | T1 (T1 = 64) | moderate potency |  | moderate potency
COc1ccc(OC)c(/C=C/C(=O)/C=C/c2cc(OC)ccc2OC)c1 [1m] |  | 1 µM |  | 10.4 µM |  | 800 nM |  | 1.1 µM |  |  |  |  | T1 (T1 = 64) |  |  | 
O=C1CC(c2ccc(C(F)(F)F)cc2)SC(c2ccc(C(F)(F)F)cc2)C1 (racemic) [2r] |  |  | 32.5 µM |  | 500 nM |  |  |  | 2.5 µM | 10.2 µM | 200 µM | 68.6 ± 41.2 µM |  |  |  | 
Cc1ccccc1/C=C/C(=O)/C=C/c1ccccc1C [1b] |  |  | 8.1 µM |  | > 64000 nM |  |  |  | 51.7 µM | > 64 µM | > 37.5 µM | 11.9 ± 1.1 µM |  |  |  | 
O=C(/C=C/c1ccccn1)/C=C/c1ccccn1 [1w] |  | 1.9 µM |  | 0.4 µM |  | 30 nM |  | 0.3 µM |  |  |  |  | T3 (T3 = 4) |  |  | 
O=C1CC(c2ccccn2)[S+]([O-])C(c2ccccn2)C1 (mixture of isomers) [3′w, (syn/anti)-cis-2,6-Di-(pyridin-2-yl)-4H-tetra-hydrothiopyran-4-one 1-oxide, as diastereoisomeric mixture] |  | 8.1 µM |  | 2 µM |  | 100 nM | 2.5 µM | 0.5 µM |  |  |  |  | T3 (T3 = 4) |  |  | 
